Reference: the supplement of paper PMC6045584
± gives the standard deviation of the averaged measurements.

Key:
[1] = compound: T1, CC1(C)CC(=O)c2c(C(F)(F)F)nn(-c3ccc(C(N)=O)c(N[C@H]4CC[C@H](OC(=O)CN)CC4)c3)c2C1 [SNX-5422]; experiment: area under dose-response curve of surviving fraction (unscaled, Aref=0) (surviving fraction x log10(nM)); higher = more resistant; details: exposure time: 5 days; dose range 0.5-1000 nM
Outline: (§1)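 Surviving fractions were fitted by 3-parameter logistic regression in the drc R package to give dose-response survival curves. They came from tumour cell lines treated for five days with eight inhibitor concentrations from 0.5 to 1000 nM and read by CellTiter-Glo luminescence against DMSO-only wells. The area under the curve is the unscaled activity area. It was calculated over log10 dose with Aref = 0.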

[2] = compound: Cn1cc(C2=Nc3cc(NC(=O)C(N)C4CCCCC4)cc4c3C2=CNNC4=O)cn1; experiment: as above; details: exposure time: 5 days; dose range 0.5-1000 nM
Outline: as §1

[3] = compound: T2, CC[C@@H]1C(=O)N(C)c2cnc(Nc3ccc(C(=O)NC4CCN(C)CC4)cc3OC)nc2N1C1CCCC1 [BI-2536]; experiment: as above; details: exposure time: 5 days; dose range 0.5-1000 nM
Outline: as §1

[4] = compound: T3, CNC(=O)c1ccc(N2C(=S)N(c3ccc(C#N)c(C(F)(F)F)c3)C(=O)C2(C)C)cc1F [MDV3100]; experiment: as above; details: exposure time: 5 days; dose range 0.5-1000 nM
Outline: as §1

[5] = compound: Nc1nc2[nH]cnc2c(=S)[nH]1 [TIOGUANINE]; experiment: as above; details: exposure time: 5 days; dose range 0.5-1000 nM
Outline: as §1

[6] = compound: CN(C)C/C=C/C(=O)Nc1cc2c(Nc3ccc(F)c(Cl)c3)ncnc2cc1O[C@H]1CCOC1 [AFATINIB]; experiment: as above; details: exposure time: 5 days; dose range 0.5-1000 nM
Outline: as §1

[7] = compound: CCCCCCCCCCCCCCCC(=O)Nc1ccn([C@@H]2O[C@H](CO)[C@@H](O)[C@@H]2C#N)c(=O)n1 [SAPACITABINE]; experiment: as above; details: exposure time: 5 days; dose range 0.5-1000 nM
Outline: as §1

[8] = compound: T1, SNX-5422; experiment: surviving fraction relative to DMSO-only wells; higher = less growth inhibition; details: exposure time: 5 days
Outline: (§2)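 Continuous five-day exposure to inhibitors at 0.5, 1, 5, 10, 50, 100, 500 and 1000 nM started 24 hours after log-phase tumour cell lines were seeded at 250–500 cells per well in 384-well plates. Luminescence was read after 10 minutes at room temperature. Viability is given as surviving fraction, meaning CellTiter-Glo luminescence normalised to the median of DMSO-only wells.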

[9] = compound: Cn1cc(C2=Nc3cc(NC(=O)C(N)C4CCCCC4)cc4c3C2=CNNC4=O)cn1; experiment: as above; details: exposure time: 5 days
Outline: as §2

[10] = compound: T2, BI-2536; experiment: as above; details: exposure time: 5 days
Outline: as §2

[11] = compound: T3, MDV3100; experiment: as above; details: exposure time: 5 days
Outline: as §2

## C33A CERVIX
[1]
  area under dose-response curve: 1.96
[2]
  area under dose-response curve: 2.75
[3]
  area under dose-response curve: 0.996
[4]
  area under dose-response curve: 3.15
[5]
  area under dose-response curve: 2.8
[6]
  area under dose-response curve: 2.23
[7]
  area under dose-response curve: 2.35
[8]; 0.5 nM
  surviving fraction: 1.03 ± 0.086
[8]; 1 nM
  surviving fraction: 0.977 ± 0.073
[8]; 5 nM
  surviving fraction: 1.03 ± 0.048
[8]; 10 nM
  surviving fraction: 1.01 ± 0.069
[8]; 50 nM
  surviving fraction: 0.316 ± 0.025
[8]; 100 nM
  surviving fraction: 0.208 ± 0.086
[8]; 500 nM
  surviving fraction: 0.056 ± 0.022
[8]; 1000 nM
  surviving fraction: 0.0593 ± 0.025
[9]; 0.5 nM
  surviving fraction: 0.878 ± 0.066
[9]; 1 nM
  surviving fraction: 0.99 ± 0.041
[9]; 5 nM
  surviving fraction: 1.02 ± 0.094
[9]; 10 nM
  surviving fraction: 1.03 ± 0.036
[9]; 50 nM
  surviving fraction: 0.952 ± 0.046
[9]; 100 nM
  surviving fraction: 0.833 ± 0.063
[9]; 500 nM
  surviving fraction: 0.335 ± 0.011
[9]; 1000 nM
  surviving fraction: 0.0597 ± 0.025
[10]; 0.5 nM
  surviving fraction: 1.12 ± 0.021
[10]; 1 nM
  surviving fraction: 1.13 ± 0.085
[10]; 5 nM
  surviving fraction: 0.266 ± 0.052
[10]; 10 nM
  surviving fraction: 0.073 ± 0.011
[10]; 50 nM
  surviving fraction: 0.0473 ± 0.0068
[10]; 100 nM
  surviving fraction: 0.036 ± 0.007
[10]; 500 nM
  surviving fraction: 0.0303 ± 0.01
[10]; 1000 nM
  surviving fraction: 0.032 ± 0.015
[11]; 0.5 nM
  surviving fraction: 0.753 ± 0.059
[11]; 1 nM
  surviving fraction: 0.772 ± 0.05
[11]; 5 nM
  surviving fraction: 0.976 ± 0.063
[11]; 10 nM
  surviving fraction: 1.07 ± 0.15
